pEC50, pKi: −log10 of the molar value.

In assay [1] the target is Replicase polyprotein 1ab (Severe acute respiratory syndrome coronavirus 2, UniProt P0DTD1). Kind of assay: Binding affinity to SARS-CoV-2 Main protease expressed in Escherichia coli BL21 (DE3) assessed as inhibition constant.
For assay [2], the system named is SARS-CoV-2. The format is functional, organism-based. The settings on record: Severe acute respiratory syndrome coronavirus 2, Vero C1008.
The nature of assay [3]: Binding affinity to MERS-CoV MPro assessed as inhibition constant. Also noted: species or system Middle East respiratory syndrome-related coronavirus.
In assay [4] the test system is Middle East respiratory syndrome-related coronavirus. The experiment in a line: Antiviral activity against MERS-CoV infected in Vero E6 cells assessed as reduction in viral replication measured after 48 hrs by qRT-PCR assay. The format is functional, organism-based. The following applies: Vero C1008, 48 h.

As to `Cc1c(Cl)cc(N2CCN(C(=O)c3cc(=O)[nH]c(=O)[nH]3)CC2)cc1Cl`, in assay [1], the pKi was 5.85.

`O=C(NCc1cccs1)[C@@H]1CN(C(=O)c2cccnc2)CCN1c1ccc(Cl)c(Cl)c1`: the pEC50 in assay [2] is 5.96.

Turning to `O=C(NCc1cccs1)[C@@H]1CN(C(=O)CCl)CCN1c1ccc(Cl)c(Cl)c1`, in assay [3], the pKi was 6.74. Besides, in assay [4], the pEC50 is 5.58.

The values are drawn from ChEMBL document CHEMBL5335779, “The research progress of SARS-CoV-2 main protease inhibitors from 2020 to 2022” (Eur J Med Chem, 2023).
